The target of assay [1] is PI3Kdelta (Homo sapiens (Human), UniProt O00329). Briefly: HTRF PI3K biochemical assay, delta isoform. The settings on record: 0.3 nM enzyme, 100 uM ATP, 50 uM PIP2; form screened (neutral or TFA salt). For orientation: Time-resolved FRET reads energy transfer from a long-lived donor to a nearby acceptor.
Assay [2] deals with PI3Kalpha (Homo sapiens (Human), UniProt P42336). Briefly: HTRF PI3K biochemical assay, alpha isoform (selectivity versus delta). The settings on record: ratio PI3K-alpha IC50 value/PI3K-delta IC50 value.
PI3Kalpha, sequence (P42336 whole entry, canonical isoform): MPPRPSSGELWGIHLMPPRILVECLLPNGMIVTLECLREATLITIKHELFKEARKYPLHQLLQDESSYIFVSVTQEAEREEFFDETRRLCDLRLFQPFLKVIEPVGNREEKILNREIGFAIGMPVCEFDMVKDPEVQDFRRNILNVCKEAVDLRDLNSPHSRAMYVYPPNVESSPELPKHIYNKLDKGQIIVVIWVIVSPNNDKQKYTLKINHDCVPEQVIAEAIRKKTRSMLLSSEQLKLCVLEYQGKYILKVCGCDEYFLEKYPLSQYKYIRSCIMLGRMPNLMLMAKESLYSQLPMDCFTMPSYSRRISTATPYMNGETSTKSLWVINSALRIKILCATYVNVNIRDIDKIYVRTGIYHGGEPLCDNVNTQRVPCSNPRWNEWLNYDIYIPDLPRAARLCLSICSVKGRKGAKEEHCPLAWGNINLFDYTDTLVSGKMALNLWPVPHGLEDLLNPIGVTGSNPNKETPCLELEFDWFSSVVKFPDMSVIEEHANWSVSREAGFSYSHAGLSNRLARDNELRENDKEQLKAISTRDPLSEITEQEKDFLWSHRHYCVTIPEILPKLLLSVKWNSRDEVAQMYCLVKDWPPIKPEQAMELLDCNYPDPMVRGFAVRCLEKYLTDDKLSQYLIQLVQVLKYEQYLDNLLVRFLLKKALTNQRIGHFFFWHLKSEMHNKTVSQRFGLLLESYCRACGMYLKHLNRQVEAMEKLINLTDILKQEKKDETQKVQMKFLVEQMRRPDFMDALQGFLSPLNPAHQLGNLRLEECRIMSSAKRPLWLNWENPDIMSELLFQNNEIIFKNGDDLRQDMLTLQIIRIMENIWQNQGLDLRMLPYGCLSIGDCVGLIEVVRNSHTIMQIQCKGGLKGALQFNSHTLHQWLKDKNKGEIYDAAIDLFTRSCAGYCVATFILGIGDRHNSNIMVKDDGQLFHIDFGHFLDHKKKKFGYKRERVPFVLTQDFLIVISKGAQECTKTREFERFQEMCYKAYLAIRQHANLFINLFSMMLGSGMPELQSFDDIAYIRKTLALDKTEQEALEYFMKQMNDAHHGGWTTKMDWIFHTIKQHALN
PI3Kalpha, sequence (P27986 whole entry partner, canonical isoform): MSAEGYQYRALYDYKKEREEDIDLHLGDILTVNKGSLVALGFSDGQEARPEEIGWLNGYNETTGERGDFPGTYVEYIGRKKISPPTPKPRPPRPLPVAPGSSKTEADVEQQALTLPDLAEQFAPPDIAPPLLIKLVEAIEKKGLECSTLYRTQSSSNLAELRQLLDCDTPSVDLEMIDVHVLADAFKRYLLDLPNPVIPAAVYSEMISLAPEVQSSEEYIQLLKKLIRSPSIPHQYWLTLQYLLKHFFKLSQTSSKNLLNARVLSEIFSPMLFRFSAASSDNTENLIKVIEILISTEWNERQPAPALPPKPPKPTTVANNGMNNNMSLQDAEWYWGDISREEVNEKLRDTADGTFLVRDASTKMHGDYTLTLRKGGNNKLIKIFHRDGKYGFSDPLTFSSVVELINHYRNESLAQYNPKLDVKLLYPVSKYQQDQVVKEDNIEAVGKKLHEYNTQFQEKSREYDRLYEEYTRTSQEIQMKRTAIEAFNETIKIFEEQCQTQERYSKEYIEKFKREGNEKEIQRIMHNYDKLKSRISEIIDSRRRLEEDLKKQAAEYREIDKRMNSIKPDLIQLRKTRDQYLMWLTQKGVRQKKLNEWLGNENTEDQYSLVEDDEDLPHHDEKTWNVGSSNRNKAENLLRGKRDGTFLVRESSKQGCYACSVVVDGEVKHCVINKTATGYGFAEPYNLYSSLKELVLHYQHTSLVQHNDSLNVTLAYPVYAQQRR

Molecules are shown by their SMILES. pIC50: −log10 of the molar value. Bounds are passed on as bounds.

PI3Kdelta, sequence (O00329 whole entry, canonical isoform): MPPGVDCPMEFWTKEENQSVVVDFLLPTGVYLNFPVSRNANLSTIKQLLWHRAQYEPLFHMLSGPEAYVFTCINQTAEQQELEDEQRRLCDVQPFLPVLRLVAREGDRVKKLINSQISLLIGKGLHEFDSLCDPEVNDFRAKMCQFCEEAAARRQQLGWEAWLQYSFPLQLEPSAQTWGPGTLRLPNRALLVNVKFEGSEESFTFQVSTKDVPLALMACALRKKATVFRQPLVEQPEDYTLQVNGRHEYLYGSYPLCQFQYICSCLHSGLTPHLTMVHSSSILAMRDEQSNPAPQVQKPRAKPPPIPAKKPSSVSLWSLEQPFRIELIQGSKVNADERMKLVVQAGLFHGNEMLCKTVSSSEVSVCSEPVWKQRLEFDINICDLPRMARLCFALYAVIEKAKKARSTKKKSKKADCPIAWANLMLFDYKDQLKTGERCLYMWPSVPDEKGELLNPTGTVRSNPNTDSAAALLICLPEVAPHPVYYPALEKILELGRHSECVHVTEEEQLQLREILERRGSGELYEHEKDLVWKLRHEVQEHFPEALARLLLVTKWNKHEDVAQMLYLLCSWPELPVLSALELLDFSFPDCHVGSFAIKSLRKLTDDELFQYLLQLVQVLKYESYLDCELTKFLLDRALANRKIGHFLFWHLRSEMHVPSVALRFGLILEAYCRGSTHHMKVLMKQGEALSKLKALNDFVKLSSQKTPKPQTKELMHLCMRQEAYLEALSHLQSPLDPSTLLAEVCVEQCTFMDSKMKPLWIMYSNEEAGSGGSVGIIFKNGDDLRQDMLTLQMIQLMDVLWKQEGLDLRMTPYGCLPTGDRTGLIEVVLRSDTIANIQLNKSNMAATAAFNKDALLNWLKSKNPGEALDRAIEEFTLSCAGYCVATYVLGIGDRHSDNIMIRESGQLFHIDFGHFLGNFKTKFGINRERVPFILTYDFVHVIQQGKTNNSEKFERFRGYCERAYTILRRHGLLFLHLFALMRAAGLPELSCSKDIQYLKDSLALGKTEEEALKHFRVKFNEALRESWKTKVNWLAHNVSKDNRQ
PI3Kdelta, sequence (P27986 whole entry partner, canonical isoform): as the sequence (P27986 whole entry partner, canonical isoform) above

The pIC50 is the IC50 on a negative log10 scale, so that one unit is a factor of ten. Consider `CCn1c(-c2cnc(C)nc2)nc2c(-c3ccc4c(c3)C(C)(N3CC(C)(C#N)C3)C(=O)N4)ncnc21` (single isomer, unassigned) [Compound 2-5, (R or S)-1-{5-[9-ethyl-8-(2-methylpyrimidin-5-yl)-9H-purin-6-yl]-3-methyl-2-oxo-2,3-dihydro-1H-indol-3-yl}-3-methylazetidine-3-carbonitrile], for which the pIC50 in assay [1] was 7.14. Further, the “Relative Selectivity versus PI3Kalpha” value in assay [2] was >10.

Regarding `CCn1c(-c2cnc(C)nc2)nc2c(-c3ccc4c(c3)C(C)(N3CC(C)(C#N)C3)C(=O)N4)ncnc21` (single isomer, unassigned) [Compound 2-6, (R or S)-1-{5-[9-ethyl-8-(2-methylpyrimidin-5-yl)-9H-purin-6-yl]-3-methyl-2-oxo-2,3-dihydro-1H-indol-3-yl}-3-methylazetidine-3-carbonitrile], the pIC50 in assay [1] is 8.52. Further, in assay [2], the “Relative Selectivity versus PI3Kalpha” value is reported as >10.

Regarding `CCn1c(-c2cnc(C)nc2)nc2c(-c3ccc4c(c3)C(C)(N3CC5(CCO5)C3)C(=O)N4)ncnc21` (single isomer, unassigned) [Compound 2-7, (R or S)-5-[9-ethyl-8-(2-methylpyrimidin-5-yl)-9H-purin-6-yl]-3-methyl-3-(1-oxa-6-azaspiro[3.3]hept-6-yl)-1,3-dihydro-2H-indol-2-one], the pIC50 in assay [1] is 8.10. The “Relative Selectivity versus PI3Kalpha” value in assay [2] is listed as >10.

Consider `CCn1c(-c2cnc(C)nc2)nc2c(-c3ccc4c(c3)C(C)(N3CC5(CCO5)C3)C(=O)N4)ncnc21` (single isomer, unassigned) [Compound 2-8, (R or S)-5-[9-ethyl-8-(2-methylpyrimidin-5-yl)-9H-purin-6-yl]-3-methyl-3-(1-oxa-6-azaspiro[3.3]hept-6-yl)-1,3-dihydro-2H-indol-2-one], for which, in assay [1], the pIC50 was 6.89. In addition, the “Relative Selectivity versus PI3Kalpha” value in assay [2] is given as >10.

As to `CCn1c(-c2cnc(C)nc2)nc2c(-c3ccc4c(c3)C(C)(N[C@@H](C)C3CC3)C(=O)N4)ncnc21` (single isomer, unassigned) [Compound 2-12, 3-{[(1S)-1-cyclopropylethyl]amino}-5-[9-ethyl-8-(2-methylpyrimidin-5-yl)-9H-purin-6-yl]-3(R or S)-methyl-1,3-dihydro-2H-indol-2-one], in assay [1], the pIC50 was 8.30. Further, in assay [2], the “Relative Selectivity versus PI3Kalpha” value is on record as >10.

With `CCn1c(-c2cnc(C)nc2)nc2c(-c3ccc4c(c3)C(C)(N[C@@H](C)C3CC3)C(=O)N4)ncnc21` (single isomer, unassigned) [Compound 2-13, 3-{[(1S)-1-cyclopropylethyl]amino}-5-[9-ethyl-8-(2-methylpyrimidin-5-yl)-9H-purin-6-yl]-3(R or S)-methyl-1,3-dihydro-2H-indol-2-one], in assay [1], the negative logarithm of the IC50 (pIC50) is 7.49. For the same compound, the “Relative Selectivity versus PI3Kalpha” value in assay [2] is listed as >10.

Regarding `CCn1c(-c2cnc(C)nc2)nc2c(-c3ccc4c(c3)C(C)(NC(C)C)C(=O)N4)ncnc21` (single isomer, unassigned) [Compound 2-31, (R or S)-5-[9-ethyl-8-(2-methylpyrimidin-5-yl)-9H-purin-6-yl]-3-methyl-3-[(1-methylethyl)amino]-1,3-dihydro-2H-indol-2-one], the pIC50 in assay [1] is 6.32. In assay [2], the “Relative Selectivity versus PI3Kalpha” value is given as >10.

`CCn1c(-c2cnc(C)nc2)nc2c(-c3ccc4c(c3)C(C)(NC(C)C)C(=O)N4)ncnc21` (single isomer, unassigned) [Compound 2-32, (R or S)-5-[9-ethyl-8-(2-methylpyrimidin-5-yl)-9H-purin-6-yl]-3-methyl-3-[(1-methylethyl)amino]-1,3-dihydro-2H-indol-2-one]: the pIC50 in assay [1] was 7.57. Further, in assay [2], the “Relative Selectivity versus PI3Kalpha” value was >10.

With `CCn1c(-c2cnc(C)nc2)nc2c(-c3ccc4c(c3)C(C)(NCC3CC3)C(=O)N4)ncnc21` (single isomer, unassigned) [Compound 2-33, (R or S)-3-[(cyclopropylmethyl)amino]-5-[9-ethyl-8-(2-methylpyrimidin-5-yl)-9H-purin-6-yl]-3-methyl-1,3-dihydro-2H-indol-2-one], the pIC50 in assay [1] was 5.56. Besides, the “Relative Selectivity versus PI3Kalpha” value in assay [2] is recorded as >4.

`CCn1c(-c2cnc(C)nc2)nc2c(-c3ccc4c(c3)C(C)(NCC3CC3)C(=O)N4)ncnc21` (single isomer, unassigned) [Compound 2-34, (R or S)-3-[(cyclopropylmethyl)amino]-5-[9-ethyl-8-(2-methylpyrimidin-5-yl)-9H-purin-6-yl]-3-methyl-1,3-dihydro-2H-indol-2-one]: the negative-log IC50 (pIC50) in assay [1] is 7.54. Further, the “Relative Selectivity versus PI3Kalpha” value in assay [2] is listed as >10.

Turning to `CCn1c(-c2cnc(C)nc2)nc2c(-c3ccc4c(c3)C(C)(NCC(C)(C)C#N)C(=O)N4)ncnc21` (single isomer, unassigned) [Compound 2-39, (R or S)-3-((5-(9-ethyl-8-(2-methylpyrimidin-5-yl)-9H-purin-6-yl)-3-methyl-2-oxoindolin-3-yl)amino)-2,2-dimethylpropanenitrile], the pIC50 in assay [1] is 8.52. Further, the “Relative Selectivity versus PI3Kalpha” value in assay [2] is >10.

On to `CCn1c(-c2cnc(C)nc2)nc2c(-c3ccc4c(c3)C(C)(NCC(C)(C)C#N)C(=O)N4)ncnc21` (single isomer, unassigned) [Compound 2-40, (R or S)-3-((5-(9-ethyl-8-(2-methylpyrimidin-5-yl)-9H-purin-6-yl)-3-methyl-2-oxoindolin-3-yl)amino)-2,2-dimethylpropanenitrile], for which the pIC50 in assay [1] is 6.75. Further, in assay [2], the “Relative Selectivity versus PI3Kalpha” value is given as >10.

Consider `CCn1c(-c2cnc(C)nc2)nc2c(-c3cnc4c(c3)C(C)(N3CC(C)(C#N)C3)C(=O)N4)ncnc21` (single isomer, unassigned) [Compound 2-53, (S or R)-1-(5-(9-ethyl-8-(2-methylpyrimidin-5-yl)-9H-purin-6-yl)-3-methyl-2-oxo-2,3-dihydro-1H-pyrrolo[2,3-b]pyridin-3-yl)-3-methylazetidine-3-carbonitrile], for which the pIC50 in assay [1] is 8.40. For the same compound, in assay [2], the “Relative Selectivity versus PI3Kalpha” value is given as >10.

For the compound `CCn1c(-c2cnc(C)nc2)nc2c(-c3cnc4c(c3)C(C)(N3CC(C)(C#N)C3)C(=O)N4)ncnc21` (single isomer, unassigned) [Compound 2-54, (S or R)-1-(5-(9-ethyl-8-(2-methylpyrimidin-5-yl)-9H-purin-6-yl)-3-methyl-2-oxo-2,3-dihydro-1H-pyrrolo[2,3-b]pyridin-3-yl)-3-methylazetidine-3-carbonitrile], in assay [1], the pIC50 is 6.77. Moreover, the “Relative Selectivity versus PI3Kalpha” value in assay [2] was >10.

Regarding `CCn1c(-c2cnc(C)nc2)nc2c(-c3ccc4c(c3)C(C)(OCC(C)(C)F)C(=O)N4)ncnc21` (single isomer, unassigned) [Compound 2-55, (R or S)-5-(9-ethyl-8-(2-methylpyrimidin-5-yl)-9H-purin-6-yl)-3-(2-fluoro-2-methylpropoxy)-3-methylindolin-2-one], the pIC50 in assay [1] is 6.70. Besides, the “Relative Selectivity versus PI3Kalpha” value in assay [2] is on record as >10.

On to `CCn1c(-c2cnc(C)nc2)nc2c(-c3ccc4c(c3)C(C)(OCC(C)(C)F)C(=O)N4)ncnc21` (single isomer, unassigned) [Compound 2-56, (R or S)-5-(9-ethyl-8-(2-methylpyrimidin-5-yl)-9H-purin-6-yl)-3-(2-fluoro-2-methylpropoxy)-3-methylindolin-2-one], for which, in assay [1], the pIC50 is 8.52. In assay [2], the “Relative Selectivity versus PI3Kalpha” value is given as >10.

As for `CCn1c(-c2cnc(C)nc2)nc2c(-c3ccc4c(c3)C(C)(OCC3CC3)C(=O)N4)ncnc21` (single isomer, unassigned) [Compound 2-57, (R or S)-3-(cyclopropylmethoxy)-5-(9-ethyl-8-(2-methylpyrimidin-5-yl)-9H-purin-6-yl)-3-methylindolin-2-one], in assay [1], the negative-log IC50 (pIC50) was 6.58. For the same compound, in assay [2], the “Relative Selectivity versus PI3Kalpha” value is >10.

For the compound `CCn1c(-c2cnc(C)nc2)nc2c(-c3ccc4c(c3)C(C)(OCC3CC3)C(=O)N4)ncnc21` (single isomer, unassigned) [Compound 2-58, (R or S)-3-(cyclopropylmethoxy)-5-(9-ethyl-8-(2-methylpyrimidin-5-yl)-9H-purin-6-yl)-3-methylindolin-2-one], the pIC50 in assay [1] is 8.15. The “Relative Selectivity versus PI3Kalpha” value in assay [2] is >10.

For `Cc1ncc(-c2nc3c(-c4cnc5c(c4)C(C)(NCC(C)(C)F)C(=O)N5)ncnc3n2C)cn1` (single isomer, unassigned) [Compound 2-59, (S or R)-5-(9-methyl-8-(2-methylpyrimidin-5-yl)-9H-purin-6-yl)-3-((2-fluoro-2-methylpropyl)amino)-3-methyl-1H-pyrrolo[2,3-b]pyridin-2(3H)-one], in assay [1], the pIC50 is 8.70. In assay [2], the “Relative Selectivity versus PI3Kalpha” value is on record as >10.

`Cc1ncc(-c2nc3c(-c4cnc5c(c4)C(C)(NCC(C)(C)F)C(=O)N5)ncnc3n2C)cn1` (single isomer, unassigned) [Compound 2-60, (S or R)-5-(9-methyl-8-(2-methylpyrimidin-5-yl)-9H-purin-6-yl)-3-((2-fluoro-2-methylpropyl)amino)-3-methyl-1H-pyrrolo[2,3-b]pyridin-2(3H)-one]: the pIC50 in assay [1] was 6.88. Besides, the “Relative Selectivity versus PI3Kalpha” value in assay [2] turned out to be 8.

`CCn1c(-c2cnc(C)nc2)nc2c(-c3ccc4c(c3)C(C)(N3C[C@@H](F)[C@H](F)C3)C(=O)N4)ncnc21` (single isomer, unassigned) [Compound 2-61, 3-(R or S)-((3R,4R)-3,4-difluoropyrrolidin-1-yl)-5-(9-ethyl-8-(2-methylpyrimidin-5-yl)-9H-purin-6-yl)-3-methylindolin-2-one]: the pIC50 in assay [1] is 7.46. Moreover, in assay [2], the “Relative Selectivity versus PI3Kalpha” value was >10.

`CCn1c(-c2cnc(C)nc2)nc2c(-c3ccc4c(c3)C(C)(N3C[C@@H](F)[C@H](F)C3)C(=O)N4)ncnc21` (single isomer, unassigned) [Compound 2-62, 3-(R or S)-((3R,4R)-3,4-difluoropyrrolidin-1-yl)-5-(9-ethyl-8-(2-methylpyrimidin-5-yl)-9H-purin-6-yl)-3-methylindolin-2-one]: the pIC50 in assay [1] was 8.22. Also, the “Relative Selectivity versus PI3Kalpha” value in assay [2] is >10.
